The target of the assay is RBP4 (Homo sapiens, UniProt P02753). Nature of the assay: HTRF competition assay: displacement of Cy5-labeled retinol from RBP4. It is filed as binding. To be noted: 10 nM biotin-labeled RBP4, streptavidin-Europium cryptate 1 nM, room temperature 30 min. The method, then:
To determine the binding affinity of test compounds for RBP4, a homogeneous time resolved fluorescence (HTRF) assay was developed. The assay was a competition experiment measuring the interaction of RBP4 with the known RBP4 ligand retinol. Cy5-labeled retinol was incubated with 10 nM biotin-labeled RBP4 protein and streptavidin-Europium cryptate (1 nM). Test or control compounds were added to the reaction mixture and incubated at room temperature for 30 min. The HTRF signal was determined by monitoring the emission at 665 nm and […]. The ratio between the 665 nM signal and the […] signal was used to determine the binding of Cy5-retinol to RBP4. The ability of test or control compounds to displace Cy5-retinol from RBP4 was used to determine their potency for RBP4. […]
`O=C(O)Cc1csc(-c2cc(Cl)cc(C(F)(F)F)c2)n1` [Example 8, 2-(2-(3-Chloro-5-(trifluoromethyl)phenyl)thiazol-4-yl)acetic acid]: the IC50 – broadly, the concentration needed to halve the response being measured – was 88 nM.
For `O=C(O)Cc1coc(-c2ccc(F)c(C(F)(F)F)c2)n1` [Example 24, 2-(2-(4-Fluoro-3-(trifluoromethyl)phenyl)oxazol-4-yl)acetic acid], the IC50 is 721 nM.
`O=C(O)C(O)c1csc(-c2cc(C(F)(F)F)cc(C(F)(F)F)c2)n1` (stereo not drawn) [Example 16, 2-(2-(3,5-Bis(trifluoromethyl)phenyl)thiazol-4-yl)-2-hydroxyacetic acid]: the half-inhibitory concentration (IC50) amounted to 141 nM.
As for `COc1ccc(-c2nc(CC(=O)O)cs2)cc1C(F)(F)F` [Example 26, 2-(2-(4-Methoxy-3-(trifluoromethyl)phenyl)thiazol-4-yl)acetic acid], the figure is 193 nM; as for `O=C(O)Cc1nc(-c2cc(C(F)(F)F)cc(C(F)(F)F)c2)co1` [Example 7, 2-(4-(3,5-Bis(trifluoromethyl)phenyl)oxazol-2-yl)acetic acid], 31 nM; as for `O=C(O)Cc1csc(-c2cc(C(F)(F)F)cc(C(F)(F)F)c2)n1` [Example 2, 2-(2-(3,5-Bis(trifluoromethyl)phenyl)thiazol-4-yl)acetic acid], 85 nM.
Compound `O=C(O)Cc1csc(-c2ccc(Cl)c(C(F)(F)F)c2)n1` [Example 10, 2-(2-(4-Chloro-3-(trifluoromethyl)phenyl)thiazol-4-yl)acetic acid] yielded a half-maximal inhibitory concentration (IC50) of 63 nM.
`O=C(O)Cc1csc(-c2cc(C(F)F)cc(C(F)(F)F)c2)n1` [Example 32, 2-(2-(3-(Difluoromethyl)-5-(trifluoromethyl)phenyl)thiazol-4-yl)acetic acid] had an IC50 of 134 nM.
As for `O=C(O)Cc1csc(-c2cc(C(F)(F)F)ccc2Cl)n1` [Example 21, 2-(2-(2-Chloro-5-(trifluoromethyl)phenyl)thiazol-4-yl)acetic acid], the figure is 1050 nM; as for `COC(=O)Cc1nc(-c2cc(C(F)(F)F)cc(C(F)(F)F)c2)no1` [Example 3, Methyl 2-(3-(3,5-bis(trifluoromethyl)phenyl)-1,2,4-oxadiazol-5-yl)acetate], 3440 nM; as for `COC(=O)Cc1coc(-c2cc(C(F)(F)F)cc(C(F)(F)F)c2)n1` [Example 4, Methyl 2-(2-(3,5-bis(trifluoromethyl)phenyl)oxazol-4-yl)acetate], 2850 nM.
As for `COC(=O)Cc1nc(-c2cc(C(F)(F)F)cc(C(F)(F)F)c2)co1` [Example 5, Methyl 2-(4-(3,5-bis(trifluoromethyl)phenyl)oxazol-2-yl)acetate], the IC50 was 924 nM.
As for `O=C(O)Cc1nc(-c2cc(F)cc(C(F)(F)F)c2)co1` [Example 12, 2-(4-(3-Fluoro-5-(trifluoromethyl)phenyl)oxazol-2-yl)acetic acid], the figure is 73 nM.
`COC(=O)Cc1csc(-c2cc(C(F)(F)F)cc(C(F)(F)F)c2)n1` [Example 1, Methyl 2-(2-(3,5-bis(trifluoromethyl)phenyl)thiazol-4-yl)acetate] returned an IC50 of 2430 nM. Against the preceding compound, the IC50 is about 33-fold higher.
Under `COc1cc(-c2nc(CC(=O)O)co2)cc(C(F)(F)F)c1` [Example 15, 2-(2-(3-Methoxy-5-(trifluoromethyl)phenyl)oxazol-4-yl)acetic acid] stands 248 nM.
Under `O=C(O)Cc1coc(-c2cc(F)cc(C(F)(F)F)c2)n1` [Example 19, 2-(2-(3-Fluoro-5-(trifluoromethyl)phenyl)oxazol-4-yl)acetic acid] stands 658 nM; under `O=C(O)Cc1nc(-c2cc(F)cc(C(F)(F)F)c2)cs1` [Example 13, 2-(4-(3-Fluoro-5-(trifluoromethyl)phenyl)thiazol-2-yl)acetic acid], 91 nM.
`O=C(O)Cc1coc(-c2cc(Br)cc(C(F)(F)F)c2)n1` [Example 37, 2-(2-(3-Bromo-5-(trifluoromethyl)phenyl)oxazol-4-yl)acetic acid]: the IC50 is greater than 10000 nM.
In turn, `O=C(O)Cc1cc(-c2ccc(Cl)c(C(F)(F)F)c2)no1` [Example 25, 2-(3-(4-Chloro-3-(trifluoromethyl)phenyl)isoxazol-5-yl)acetic acid] came in with an IC50 of 285 nM.
The compound `COc1ccc(-c2nc(CC(=O)O)co2)cc1C(F)(F)F` [Example 23, 2-(2-(4-Methoxy-3-(trifluoromethyl)phenyl)oxazol-4-yl)acetic acid] gave an IC50 of 175 nM.
As for `O=C(O)Cc1csc(-c2cc(F)c(F)c(C(F)(F)F)c2)n1` [Example 30, 2-(2-(3,4-Difluoro-5-(trifluoromethyl)phenyl)thiazol-4-yl)acetic acid], the figure is 86 nM; as for `FC(F)(F)c1cc(-c2nc(Cc3nn[nH]n3)cs2)cc(C(F)(F)F)c1` [Example 34, 5-[2-(3,5-Bis-trifluoromethyl-phenyl)-thiazol-4-ylmethyl]-2H-tetrazole], 98 nM.
As for `Cc1ccc(-c2nc(CC(=O)O)cs2)cc1C(F)(F)F` [Example 17, 2-(2-(4-Methyl-3-(trifluoromethyl)phenyl)thiazol-4-yl)acetic acid], the figure is 86 nM; as for `O=C(O)Cc1coc(-c2cc(C(F)(F)F)cc(C(F)(F)F)c2)n1` [Example 6, 2-(2-(3,5-Bis(trifluoromethyl)phenyl)oxazol-4-yl) acetic acid], 93 nM; as for `Cc1sc(CC(=O)O)nc1-c1cc(C(F)(F)F)cc(C(F)(F)F)c1` [Example 9, 2-(4-(3,5-Bis(trifluoromethyl)phenyl)-5-methylthiazol-2-yl)acetic acid], 232 nM.
Turning to `COc1cc(-c2nc(CC(=O)O)cs2)cc(C(F)(F)F)c1` [Example 14, 2-(2-(3-Methoxy-5-(trifluoromethyl)phenyl)thiazol-4-yl)acetic acid], the IC50 stood at 88 nM.
Compound `O=C(O)Cc1csc(-c2ccc(F)c(C(F)(F)F)c2)n1` [Example 18, 2-(2-(4-Fluoro-3-(trifluoromethyl)phenyl)thiazol-4-yl)acetic acid] gave an IC50 of 440 nM.
`FC(F)(F)c1cc(-c2nc(Cc3nn[nH]n3)cs2)ccc1Cl` [Example 35, 5-[2-(4-Chloro-3-trifluoromethyl-phenyl)-thiazol-4-ylmethyl]-2H-tetrazole] registered an IC50 of 196 nM.
Under `O=C(O)Cc1csc(-c2cc(F)cc(C(F)(F)F)c2)n1` [Example 20, 2-(2-(3-Fluoro-5-(trifluoromethyl)phenyl)thiazol-4-yl)acetic acid] stands 168 nM; under `O=C(O)Cc1csc(-c2cccc(C(F)(F)F)c2Cl)n1` [Example 27, 2-(2-(2-Chloro-3-(trifluoromethyl)phenyl)thiazol-4-yl)acetic acid], 2380 nM.
The compound `O=C(O)Cc1coc(-c2cc(F)c(F)c(C(F)(F)F)c2)n1` [Example 29, 2-(2-(3,4-Difluoro-5-(trifluoromethyl)phenyl)oxazol-4-yl)acetic acid] showed an IC50 of 263 nM.
As for `O=C(O)Cc1csc(-c2cc(Br)cc(C(F)(F)F)c2)n1` [Example 28, 2-(2-(3-Bromo-5-(trifluoromethyl)phenyl)thiazol-4-yl)acetic acid], the figure is 50 nM; as for `Cc1oc(CC(=O)O)nc1-c1cc(C(F)(F)F)cc(C(F)(F)F)c1` [Example 11, 2-(4-(3,5-Bis(trifluoromethyl)phenyl)-5-methyloxazol-2-yl)acetic acid], 1590 nM.
For the compound `O=C(O)c1nc(-c2cc(C(F)(F)F)cc(C(F)(F)F)c2)cs1` [Example 33, 4-(3,5-Bis-trifluoromethyl-phenyl)-thiazole-2-carboxylic acid], the half-inhibitory concentration (IC50) was 1060 nM. This IC50 lies about 1.5-fold lower than the previous one.
As for `O=C(O)Cc1coc(-c2cccc(C(F)(F)F)c2Cl)n1` [Example 22, 2-(2-(2-Chloro-3-(trifluoromethyl)phenyl)oxazol-4-yl)acetic acid], the figure is 1660 nM; as for `O=C(O)Cc1coc(-c2cc(C(F)(F)F)ccc2Cl)n1` [Example 36, 2-(2-(2-Chloro-5-(trifluoromethyl)phenyl)oxazol-4-yl)acetic acid], 8820 nM.

Values taken from patent publication US20120077854A1, “COMPOSITIONS AND METHODS FOR MODULATING RETINOL BINDING TO RETINOL BINDING PROTEIN 4 (RBP4)” (priority 2009, published 2012).
